Data set [1] concerns HL-60 cells (human promyelocytic leukemia).
Procedure: (§1) Cells were purchased from the American Type Culture Collection (ATCC, Manassas, VA, USA). Human lung adenocarcinoma A549 cells were maintained in Dulbecco's Modified Eagle Medium (DMEM), while mouse fibroblast NIH/3T3 and human promyelocytic leukemia HL-60 cells were maintained in Roswell Park Memorial Institute 1640 medium (RPMI-1640) containing 10% FCS. Media were supplemented with 2 mM GlutaMAX, 100 U/mL penicillin, and 100 µg/mL streptomycin (Life Technologies, Carlsbad, California, USA). Cell cultures were maintained at 37 °C in a humidified incubator in an atmosphere of 5% CO2 (Sanyo, Japan).
(§2) Cytotoxicity of the synthesized molecules was determined on A549, NIH/3T3 and HL-60 cells using the fluorescent Resazurin assay as described previously [46].
(§3) Briefly, cells (A549 and NIH/3T3: 6000, HL-60: 120.000 cells/well) were seeded into 96-well plates (Corning Life Sciences) in media and incubated overnight. Test compounds were dissolved in three-fold amounts of dimethyl sulfoxide (DMSO). Cells were treated with an increasing concentration of test compounds (1–30 µM). […] Cell viability was determined after 72 h incubation. Resazurin reagent (Sigma-Aldrich) was added at a final concentration of 25 µg/mL. After a 2 h incubation at 37 °C in 5% CO2, fluorescence (530 nm excitation/580 nm emission) was recorded on a multimode microplate reader (Cytofluor4000, PerSeptive Biosytems). Viability was calculated with relation to untreated control cells and blank wells containing media without cells. […] A Student’s t test was performed for individual test compound concentrations with relation to untreated control cell viability values.
Data set [2] shares this test system. Description: In vitro cytotoxicity, fluorescent Resazurin assay. Conditions: Homo sapiens, HL-60, 72 h, read-out: IC50 for HL60 (positive control), 72 h incubation, value in nM. (In general: Resazurin is reduced to fluorescent resorufin, in cell work by metabolically active cells.)
Procedure: as §1, §2, §3

The IC50 is the concentration needed to halve the response being measured. For the compound `CC(C)C[C@H](NC(=O)[C@H](Cc1ccccc1)NC(=O)c1cnccn1)B(O)O` [Bortezomib, reference compound], the “In Vitro Cytotoxicity (IC50, µM) HL-60” value in data set [1] was 7.42 × 10^−3 2.60 × 10^−3 µM. Moreover, the IC50 in data set [2] is 7.42 ± 2.6 nM.
